Experimental data reported in the Kinase Knowledgebase extract (Sharma et al. 2016).

Molecular target: MAPK14 (UniProt Q16539)
Experiment: p38 Kinase Inhibition Assay

Sequence of MAPK14 (Q16539 whole entry, looked up): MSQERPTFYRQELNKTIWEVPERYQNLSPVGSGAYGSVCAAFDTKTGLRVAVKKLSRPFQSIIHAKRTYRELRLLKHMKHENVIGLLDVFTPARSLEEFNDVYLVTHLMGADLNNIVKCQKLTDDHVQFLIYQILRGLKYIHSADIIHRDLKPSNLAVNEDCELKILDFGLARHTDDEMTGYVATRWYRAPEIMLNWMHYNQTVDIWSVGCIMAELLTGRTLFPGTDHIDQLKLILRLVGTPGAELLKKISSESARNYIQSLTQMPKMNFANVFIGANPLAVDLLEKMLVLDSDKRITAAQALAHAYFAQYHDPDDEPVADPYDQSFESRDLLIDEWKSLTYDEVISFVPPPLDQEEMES

SMILES | IC50
CC1(Cc2ccccc2)CCN(C(=O)c2ccccc2Br)CC1 | 200 to 1500 nM
CC(=O)Nc1ccc(C(=O)N2CCC(Cc3ccccc3)CC2)cc1 | 200 to 1500 nM
CNc1ccccc1C(=O)N1CCC(Cc2ccccc2)CC1 | 200 to 1500 nM
COc1cccc(OC)c1C(=O)N1CCC(Cc2ccccc2)CC1 | 200 to 1500 nM
Nc1ccc(C(=O)N2CCC(Cc3ccccc3)CC2)c(Cl)c1 | 200 to 1500 nM
S=C(c1ccccc1)N1CCC(Cc2ccccc2)CC1 | 200 to 1500 nM
O=CNc1ccc(C(=O)N2CCC(Cc3ccccc3)CC2)cc1 | 200 to 1500 nM
COc1ccc(C(=O)N2CCC(Cc3ccccc3)CC2)c(OC)c1 | 200 to 1500 nM
CNc1ccc(C(=O)N2CCC(Cc3ccccc3)CC2)c(Cl)c1 | 200 to 1500 nM

Now from value to compound:

IC50 | SMILES
200 to 1500 nM | Nc1ccc(C(=O)N2CCC(Cc3ccccc3)CC2)cc1
200 to 1500 nM | CN(C)c1ccc(C(=O)N2CCC(Cc3ccccc3)CC2)c(Cl)c1
200 to 1500 nM | O=C(c1ccccc1Br)N1CCC(Cc2ccccc2)CC1
200 to 1500 nM | CN(C)c1ccc(C(=O)N2CCC(Cc3ccccc3)CC2)cc1
200 to 1500 nM | CN(C)c1ccccc1C(=O)N1CCC(Cc2ccccc2)CC1
200 to 1500 nM | O=C(c1ccccc1Cl)N1CCC(Cc2ccccc2)CC1
200 to 1500 nM | CN(C)c1cccc(C(=O)N2CCC(Cc3ccccc3)CC2)c1
200 to 1500 nM | O=C(c1ccccc1)N1CCC(Cc2ccccc2)CC1
200 to 1500 nM | O=C(c1ccccc1O)N1CCC(Cc2ccccc2)CC1
200 to 1500 nM | O=C(c1ccccc1I)N1CCC(Cc2ccccc2)CC1
200 to 1500 nM | Cc1ccccc1C(=O)N1CCC(Cc2ccccc2)CC1
